Our source for the IC50 values is patent US7846943B2, “Azolopyridin-2-one derivatives as lipase and phospholipase inhibitors” (Sanofi-Aventis, priority 2005, dated 2010).

The target of the assay is T1, endothelial lipase (EL) (Homo sapiens, UniProt Q9Y5X9).
T1 construct: made in house; host or cells: recombinant cell lines (CHO, HEK293); concentrated conditioned medium used as enzyme solution
T1 sequence (Q9Y5X9 21-500): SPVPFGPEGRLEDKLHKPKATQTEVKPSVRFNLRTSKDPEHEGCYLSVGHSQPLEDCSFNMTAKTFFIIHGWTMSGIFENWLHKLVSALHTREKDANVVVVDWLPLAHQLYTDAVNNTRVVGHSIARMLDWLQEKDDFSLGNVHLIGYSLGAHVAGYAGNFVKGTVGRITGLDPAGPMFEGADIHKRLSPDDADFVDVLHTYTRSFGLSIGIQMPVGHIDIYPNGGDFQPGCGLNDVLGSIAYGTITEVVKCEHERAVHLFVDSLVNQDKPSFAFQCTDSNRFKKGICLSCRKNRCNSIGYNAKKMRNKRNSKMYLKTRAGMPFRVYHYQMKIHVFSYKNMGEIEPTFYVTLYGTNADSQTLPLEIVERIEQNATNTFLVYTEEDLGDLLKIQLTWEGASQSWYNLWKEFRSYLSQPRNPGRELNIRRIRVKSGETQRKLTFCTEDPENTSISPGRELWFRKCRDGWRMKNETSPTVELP
Kind of assay: Further EL inhibition assay. The format is biochemical. As to conditions: Bodipy-labelled phospholipid substrate, 37° C., 90 minutes, HPTLC fluorescence readout; EL from conditioned medium of recombinant cell lines (CHO, HEK293). The source says: EL is released as secretory protein in high concentration into cell culture medium (conditioned medium) by recombinant cell lines (CHO, HEK293). This is employed as enzyme solution after concentration.
The enzymatic activity is reduced as a function of the inhibitor concentration used, and the inhibitor concentration at which a half-maximum enzymatic activity is observed is called IC50.
The phospholipase-specific substrate 1,2-bis(4,4-difluoro-5,7-dimethyl-4-bora-3a,4a-diaza-s-indacene-3-undecanoyl)-sn-glycero-3-phosphocholine, (manufacturer Molecular Probes) is used to characterize the enzymatic activity of endothelial lipase and the effect of inhibitors. Hydrolysis of the A1 ester linkage of this phospholipid by the enzyme liberates the fluorescent dye Bodipy which can be detected after separation by thin-layer chromatography on an HPTLC plate (silica gel 60, Merck) or directly in the reaction vessel by measuring the fluorescence. The substrate solution is prepared by dissolving 100 μg of 1,2-bis(4,4-difluoro-5,7-dimethyl-4-bora-3a,4a-diaza-s-indacene-3-undecanoyl)-sn-glycero-3-phospho-choline (manufacturer Molecular Probes) in 100 μl of DMSO and taking up in 2.4 mg of tripalmitin (Sigma) in 393 μl of chloroform which comprises 20 mg/ml DOP-choline (1,2-dioleoyl-sn-glycero-3-phosphocholine). 39.3 μl of this lipid mixture are transferred into a fresh reaction vessel, and the solvent is evaporated off. The lipid mixture is dissolved in 4 ml of 200 mM TRIS-HCl, 150 mM sodium chloride, pH=7.4, by sonication twice. The subsequent enzymic reaction takes place at 37° C. for 90 minutes. For this purpose, 20 μl of the substrate solution are incubated with 2 μl of inhibitor of appropriate concentration (dissolved in 10% DMSO, using 10% strength DMSO solution for control) and 2 μl of enzyme solution (conditioned medium). The 4 μl of the assay mixture are loaded onto an HPTLC plate (silica gel 60, Merck), and the liberated fluorescent dye is separated for detection with an eluent (diethyl ether:petroleum benzine:acetic acid [78:22:1]). After evaporation of the eluent, the plate is read in a fluorescence scanner. An increased liberation of the fluorescent dye in the uninhibited reaction is to be observed as a measure of the enzymic activity.

One may read the IC50 as the concentration that gives 50% inhibition.

With `CCCCCCNC(=O)n1c(=O)oc2cccnc21` [Example 3, 2-Oxo-oxazolo[4,5-b]pyridine-3-hexylcarboxamide], the IC50 was 69 nM.
For `O=C(N[C@@H]1CCc2ccccc21)n1c(=O)oc2cccnc21` [Example 14], the half-maximal inhibitory concentration (IC50) is 180 nM.
On to `Cc1ccc(CNC(=O)n2c(=O)oc3cccnc32)cc1C` [Example 5, 2-Oxo-oxazolo[4,5-b]pyridine-3-(3,4-dimethylbenzyl)carboxamide], for which the IC50 was 10 nM.
Regarding `Cc1ccccc1CNC(=O)n1c(=O)oc2cc(Br)cnc21` [Example 2, 6-Bromo-2-oxo-oxazolo[4,5-b]pyridine-3-(2-methylbenzyl)carboxamide], the IC50 was 10 nM.
In the case of `CCCCNC(=O)n1c(=O)oc2cccnc21` [Example 11, 2-Oxo-oxazolo[4,5-b]pyridine-3-butylcarboxamide], the IC50 came out at 354 nM.
For the molecule `Cc1ccc2oc(=O)n(C(=O)NCc3ccccc3C)c2n1` [Example 17, 5-Methyl-2-oxo-oxazolo[4,5-b]pyridine-3-(2-methylbenzyl)carboxamide], the IC50 came to 61 nM.
Regarding `CCCCCCCCCNC(=O)n1c(=O)oc2cccnc21` [Example 20, 2-Oxo-oxazolo[4,5-b]pyridine-3-nonylcarboxamide], the IC50 was determined as 90 nM.
With `Cc1ccccc1CNC(=O)n1c(=O)oc2cccnc21` [Example 1, 2-Oxo-oxazolo[4,5-b]pyridin-3-(2-methylbenzyl)carboxamide], the IC50 was 50 nM.
Turning to `O=C(NCC1CCCCC1)n1c(=O)oc2cccnc21` [Example 18, 2-Oxo-oxazolo[4,5-b]pyridine-3-cyclohexylmethylcarboxamide], the IC50 stood at 480 nM.
For `CCCCCCCCNC(=O)n1c(=O)oc2cccnc21` [Example 19, 2-Oxo-oxazolo[4,5-b]pyridine-3-octylcarboxamide], the IC50 worked out at 83 nM.
Turning to `Cc1cccc(CNC(=O)n2c(=O)oc3cccnc32)c1` [Example 4, 2-Oxo-oxazolo[4,5-b]pyridine-3-(3-methylbenzyl)carboxamide], the IC50 was found to be 390 nM.
Consider `CCCCCCCNC(=O)n1c(=O)oc2cccnc21` [Example 9, 2-Oxo-oxazolo[4,5-b]pyridine-3-heptylcarboxamide], for which the IC50 was determined as 11 nM.
As to `O=C(NC1CCCc2ccccc21)n1c(=O)oc2cccnc21` (stereo not drawn) [Example 13, 2-Oxo-oxazolo[4,5-b]pyridin-3-(1,2,3,4-tetrahydronaphthalen-1-yl)carboxamide], the IC50 turned out to be 0.5 nM.
In the case of `O=C(N[C@H]1CCc2ccccc21)n1c(=O)oc2cccnc21` [Example 15], the IC50 was 230 nM.
With `CCCCCCCCCCCCNC(=O)n1c(=O)oc2cccnc21` [Example 16, 2-Oxo-oxazolo[4,5-b]pyridin-3-dodecylcarboxamide], the half-inhibitory concentration (IC50) came to 180 nM.
